Results from publication PMC7767506, “Synthesis and Characterization of Store-Operated Calcium Entry Inhibitors Active in the Submicromolar Range” (International Journal of Molecular Sciences, 2020).
Entries after “also recorded” stand apart in the source; their conditions may differ.

Columns and labels:
[1] = test system: SOCE in DG75 (human Burkitt lymphoma cell line); assay: Thapsigargin-induced SOCE in DG75 cells, Indo-1; assay type: cell-based
Protocol: (§1) We also tested P11 on the DG75 (Burkitt B lymphoma), U937 (monocytic lymphoma), and MDA-MB231 (breast carcinoma) cell lines. […] Thus, in several cell lines, full inhibition of the SOCE was already obtained at a concentration of 100 nM (Figure 3B).
(§2) [Ca^2+]cyt was recorded by a fluorimetric ratio technique as previously described. Leukocytes were spun and resuspended at a density of 10^6 cells/mL in Hepes buffered saline (HBS; 135 mM NaCl, 5.9 mM KCl, 1.2 mM MgCl2, 11.6 mM Hepes, 11.5 mM glucose adjusted to pH 7.3 with NaOH). Due to the presence of 0.002% Ca^2+ in the NaCl, this HBS medium contained 0.1 mM of Ca^2+. Then, cells were incubated in the dark with 4 μM Indo-1-AM for one hour at room temperature under slow agitation. […] Ultraviolet light of 360 nm was used for excitation of Indo-1, and emissions at 405 and 480 nm were recorded. […] The maximum Indo-1 fluorescence (Rmax) was obtained by adding 1 µM ionomycin to the cell suspension in the presence of 10 mM extracellular CaCl2. Minimum fluorescence was determined following the depletion of external Ca^2+ with 5 mM EGTA.
(§3) To visualize the SOCE, cells were placed into the quartz cuvette and 0.5 EGTA was added just before the beginning of the recordings. […] In the dose-response experiments, different concentrations of 2-APB and its analogs were added 30 s prior to Ca^2+ readdition.

[2] = test system: SOCE in U937 (human monocytic lymphoma cell line); assay: Thapsigargin-induced SOCE in U937 cells, Indo-1; assay type: cell-based
Protocol: as §1, §2, §3

[3] = test system: SOCE in MDA-MB231 (breast cancer) cells; assay: Thapsigargin-induced SOCE in MDA-MB231 cells, Indo-1; assay type: cell-based, human
Protocol: as §1, §2, §3

SERCA = SERCA (Mus musculus, UniProt O55143); assay: SERCA-mediated 45Ca2+ store loading in permeabilized L15 fibroblasts; assay type: cell-based
SERCA, sequence (O55143 whole entry): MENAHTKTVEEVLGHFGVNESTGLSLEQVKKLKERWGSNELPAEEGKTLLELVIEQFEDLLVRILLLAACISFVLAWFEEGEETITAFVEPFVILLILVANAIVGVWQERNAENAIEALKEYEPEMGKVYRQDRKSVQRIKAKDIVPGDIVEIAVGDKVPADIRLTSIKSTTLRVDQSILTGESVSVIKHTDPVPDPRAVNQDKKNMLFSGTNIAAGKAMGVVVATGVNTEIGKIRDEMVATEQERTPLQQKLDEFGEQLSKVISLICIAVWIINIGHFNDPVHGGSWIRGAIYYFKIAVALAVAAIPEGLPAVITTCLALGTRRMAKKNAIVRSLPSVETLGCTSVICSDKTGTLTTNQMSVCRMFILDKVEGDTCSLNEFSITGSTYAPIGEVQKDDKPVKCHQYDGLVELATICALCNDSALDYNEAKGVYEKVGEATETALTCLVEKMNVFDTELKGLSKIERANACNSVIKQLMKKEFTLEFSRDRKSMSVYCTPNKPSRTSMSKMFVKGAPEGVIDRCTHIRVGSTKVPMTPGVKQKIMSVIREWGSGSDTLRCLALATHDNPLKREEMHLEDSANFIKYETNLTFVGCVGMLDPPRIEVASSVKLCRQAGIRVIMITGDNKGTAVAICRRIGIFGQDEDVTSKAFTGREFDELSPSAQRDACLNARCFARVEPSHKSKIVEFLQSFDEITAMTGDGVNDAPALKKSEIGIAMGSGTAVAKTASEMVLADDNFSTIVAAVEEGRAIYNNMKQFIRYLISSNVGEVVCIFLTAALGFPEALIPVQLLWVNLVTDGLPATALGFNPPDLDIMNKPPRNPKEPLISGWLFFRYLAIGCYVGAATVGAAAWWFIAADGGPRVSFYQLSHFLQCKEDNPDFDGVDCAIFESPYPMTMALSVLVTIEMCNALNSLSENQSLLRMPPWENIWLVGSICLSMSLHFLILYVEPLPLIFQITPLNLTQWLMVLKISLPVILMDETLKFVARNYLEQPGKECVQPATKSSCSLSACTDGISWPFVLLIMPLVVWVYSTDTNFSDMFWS
Protocol: Measurements of SERCA-mediated ^45Ca^2+ store loading and IP3-dependent release from the ER Ca^2+ store were performed on permeabilized cells in unidirectional conditions. As this approach required the use of cells forming strongly adherent monolayers, we used L15 fibroblasts stably overexpressing IP3R1, similarly to our previous work.
The L15 fibroblasts stably overexpressing IP3R1 were seeded in gelatin-coated 12-well plates (Greiner, Frickenhausen, Germany) at a density of 60,000 cells per well. Unidirectional ^45Ca^2+ flux experiments on confluent cell monolayers were performed at 30 °C after membrane permeabilization with saponin (40 µg/mL), exactly as previously described. After permeabilization, the non-mitochondrial Ca^2+ stores were loaded for 45 min in 120 mM KCl, 30 mM imidazole–HCl (pH 6.8), 5 mM MgCl2, 5 mM ATP, 0.44 mM EGTA, 10 mM NaN3, and 150 nM free ^45Ca^2+ (28 µCi mL^−1). Subsequently, efflux was initiated by incubation in efflux medium (120 mM KCl, 1 mM EGTA, 10 µM TG and 30 mM imidazole–HCl pH 6.8). The latter medium was replaced every two minutes for 18 minutes. The exact amount of Ca^2+ at each time point is calculated by summing in retrograde order the amount of radioactivity remaining in the cells at the end of the efflux and the radioactivity collected during the successive time intervals. This allows to calculate the steady-state content of the ER Ca^2+ stores (indicative for the SERCA activity, after subtraction of the loading achieved in the presence of 2 µM TG) the basal leak rate of Ca^2+ out of the stores and the IP3-induced Ca^2+ release after addition of IP3 (0.7 µM). These various parameters were measured both in control conditions or in the presence of various 2-APB analogs as indicated. To assess the effect of the 2-APB analogs on the SERCA-mediated loading of the ER Ca^2+ stores, the analogs were added during the ^45Ca^2+-loading phase as described previously. Obviously, compounds that strongly stimulated the basal Ca^2+ leak out of the stores (as P8) could not be investigated for their effect on SERCA activity (as Ca^2+ loading was already compromised by the increased leak) or on IP3-induced Ca^2+ release (as the decreased luminal Ca^2+ level impacted both the driving force for Ca^2+ release and the sensitivity of the IP3R).

[4] = test system: IL-2 synthesis by Jurkat T cells; assay: IL-2 ELISA in supernatants of Jurkat cells; assay type: cell-based, human
Protocol: We next studied the effect of increasing [P11] on the neo-synthesized IL-2 concentration in the medium of PHA -stimulated Jurkat cells after 24 h.
Forty-eight-well plates were seeded with 10^6 Jurkat T cells per well. Cells were then incubated for 24 h with or without 10 µg/mL PHA and 0 to 1 µM P11 in complete culture medium. After 24 h, supernatants were collected, and IL-2 amounts were quantified using a Quantikine Human IL-2 Immunoassay (R&D Systems Europe, Lille, France). Optical density (OD) was measured at 450 nm using a Victor3 plate reader (Perkin Elmer, Courtaboeuf, France). The concentration of supernatant IL-2 was determined from the OD curve obtained with the standard. Results were the mean of four repeats. In parallel plates, cell viability was accessed after treatment with trypan blue and counting with a Malassez hematimeter (Sigma-Aldrich, Saint Quentin Fallavier, France).

2-(dibiphenyl-4-ylboryloxy)ethanamine [P11]
Ki ([1]; DG75 cells): 32 ± 2 nM | concentration of full SOCE inhibition ([1]; in several cell lines (Figure 3B)): 100 nM | Ki [2]: 40 ± 5 nM | Ki [3]: 50 ± 5 nM | effect on SERCA (SERCA; concentrations < 1 µM): devoid of any inhibitory activity; also recorded: without any effect | change of SERCA activity (SERCA; concentrations > 30 µM): −89 ± 1% | Ki (SERCA; permeabilized L15 fibroblasts): 7400 ± 2000 nM | IL-2 synthesis by compound alone ([4]; 1 µM, no PHA): not able to induce IL-2 synthesis | IL-2 concentration in medium ([4]; 10 µg/mL PHA + 1 µM P11, 24 h): 26 ± 6 pg/mL | change of IL-2 synthesis ([4]; 10 µg/mL PHA + 1 µM P11, 24 h, vs PHA alone): −74% | IL-2 corrected for the number of living cells ([4]; PHA + P11 (highest concentration), 24 h): 39.2 ± 8.6 pg/mL | decrease of IL-2 synthesis capacity of living cells ([4]; PHA + P11 vs PHA alone): ≈ 63%
